Results on 12 compounds are retold here after ChEMBL document CHEMBL5120961, “N-Arylimidazoliums as Highly Selective Biomimetic Antimicrobial Agents” (J Med Chem, 2022).

Values after ≈ are worked out from the molar mass of the structure shown. Active and inactive are the calls of the source. No cut-off for these calls is given here. Bridge positions count the residues as written; N and C are the ends. Square brackets hold non-standard residues; d marks the D form. Peptide text beside a SMILES is read from it. * marks the point of attachment. X1 = CC[C@H](C)CCCCC(=O)*; Dab = NCC[C@H](N)C(=O)O

The test system of series [1] is Staphylococcus aureus. In words: Antibacterial activity against methicillin-resistant Staphylococcus aureus ATCC 43300 assessed as inhibition of bacterial growth incubated for 16 to 18 hrs by broth microdilution method. The class given is functional. To be noted: time 16-18 hrs. Background: Dilution methods test growth across graded concentrations, often in twofold steps.

In series [2] the test system is Staphylococcus aureus. Kind of series: Antibacterial activity against Staphylococcus aureus ATCC 25923 assessed as inhibition of bacterial growth incubated for 16 to 18 hrs by broth microdilution method. Format: functional. To be noted: time 16-18 hrs.
Series [3] relates to Escherichia coli. In words: Antibacterial activity against Escherichia coli ATCC 25922 assessed as inhibition of bacterial growth incubated for 16 to 18 hrs by broth microdilution method. The class given is functional. To be noted: time 16-18 hrs.
In series [4] the test system is Erythrocyte. In words: Hemolytic activity in rabbit erythrocytes incubated for 1 hr. Format: toxicity, cell-based, Oryctolagus cuniculus.
Series [5] can be described thus: Selectivity ratio of HC5 for hemolytic activity in rabbit erythrocytes to MIC for antibacterial activity against methicillin-resistant Staphylococcus aureus ATCC 43300. The class given is toxicity, cell-based.
For series [6], the system named is Enterococcus faecalis. In words: Antibacterial activity against Enterococcus faecalis ATCC 29212 assessed as inhibition of bacterial growth incubated for 16 to 18 hrs by broth microdilution method. Format: functional. To be noted: time 16-18 hrs.
Series [7] has as its system Staphylococcus aureus. In words: Inhibition of biofilm formation in methicillin-resistant Staphylococcus aureus ATCC 43300 incubated for 24 hrs under stationary conditions by crystal violet staining based analysis. Format: functional, organism-based.
Series [8] relates to Staphylococcus aureus. Kind of series: Disruption of established biofilm in methicillin-resistant Staphylococcus aureus ATCC 43300 assessed as reduction of relative biofilm mass at 128XMIC incubated for 24 hrs by crystal violet staining based analysis. Format: functional.
Series [9] relates to Staphylococcus aureus. In words: Antibacterial activity against methicillin-resistant Staphylococcus aureus ATCC 43300 infected in BALB/c mouse assessed as reduction of histopathological changes of pulmonary tissue at 4 mg/kg, iv administered at 1, 6, 25 and 30 hrs post-infection and measured on day 7 post-infection by hematoxylin-eosin staining based analysis. As to conditions: time 7.0 day. Format: functional, organism-based.

Series [10] concerns Acinetobacter baumannii. Kind of series: Antibacterial activity against Acinetobacter baumannii ATCC 19606 assessed as inhibition of bacterial growth incubated for 16 to 18 hrs by broth microdilution method. The class given is functional. To be noted: time 16-18 hrs.
The subject of series [11] is Pseudomonas aeruginosa. Kind of series: Antibacterial activity against Pseudomonas aeruginosa ATCC 27853 assessed as inhibition of bacterial growth incubated for 16 to 18 hrs by broth microdilution method. The class given is functional. As to conditions: time 16-18 hrs.
Series [12] relates to Klebsiella pneumoniae. In words: Antibacterial activity against Klebsiella pneumoniae CMCC(B) 46117 assessed as inhibition of bacterial growth incubated for 16 to 18 hrs by broth microdilution method. As to conditions: time 16-18 hrs. Format: functional.

The MIC is the lowest concentration that inhibits growth of the organism. Regarding `CCCCCC[n+]1ccn(-c2ccc(/C=C/c3ccc(-n4cc[n+](CCCCCC)c4)cc3)cc2)c1.[Br-].[Br-]`, the MIC in series [1] is 1 µg/mL; in series [2] it was 1 µg/mL; in [3], 2 µg/mL. In addition, the HC5 in series [4] worked out at 600 µg/mL. The selectivity ratio in series [5] turned out to be 600.
For the compound `CC[n+]1ccn(-c2ccc(C#Cc3ccc(-n4cc[n+](CC)c4)cc3)cc2)c1.[Br-].[Br-]`, the MIC in [1] amounted to 64 µg/mL; in [2], 64 µg/mL; in series [3] it was 8 µg/mL. For the same compound, in series [4], the HC5 worked out at 8000 µg/mL. Besides, the selectivity ratio in series [5] came out at 125.
Take `CCCCCCCC[n+]1ccn(CCCCn2cc[n+](CCCCCCCC)c2)c1.[Br-].[Br-]`: the minimal inhibitory concentration (MIC) was 8 µg/mL in [1], 4 µg/mL in series [2] and 32 µg/mL in series [3]. In addition, the HC5 in [4] was 400 µg/mL. Further, the selectivity ratio in series [5] amounted to 50.
On the same counts, the results for `C(#Cc1ccc(-n2cc[n+](Cc3ccccc3)c2)cc1)c1ccc(-n2cc[n+](Cc3ccccc3)c2)cc1.[Br-].[Br-]` are 1 µg/mL, 0.5 µg/mL, 2 µg/mL, 200 µg/mL and 200.
Turning to `C(#Cc1ccc(-n2ccnc2)cc1)c1ccc(-n2ccnc2)cc1`, the MIC in series [1], in series [2] and in series [3] was over 500 µg/mL throughout.
In the case of `CCCCCC[n+]1ccn(-c2ccc(CCc3ccc(-n4cc[n+](CCCCCC)c4)cc3)cc2)c1.[Br-].[Br-]`, the MIC was 1 µg/mL in [1], 0.5 µg/mL in series [2] and 4 µg/mL in series [3]. The HC5 in series [4] stood at 1000 µg/mL. Moreover, the selectivity ratio in [5] was found to be 1000.
On to `CN[C@H](CC(C)C)C(=O)N[C@H]1C(=O)N[C@@H](CC(N)=O)C(=O)N[C@H]2C(=O)N[C@H]3C(=O)N[C@H](C(=O)N[C@H](C(=O)O)c4cc(O)cc(O)c4-c4cc3ccc4O)[C@H](O)c3ccc(c(Cl)c3)Oc3cc2cc(c3O[C@@H]2O[C@H](CO)[C@@H](O)[C@H](O)[C@H]2O[C@H]2C[C@](C)(N)[C@H](O)[C@H](C)O2)Oc2ccc(cc2Cl)[C@H]1O` [VANCOMYCIN], for which, in series [6], the minimal inhibitory concentration (MIC) was 1 µg/mL (≈ 0.69 µM). Moreover, the inhibition result in series [7] is “Active”. Moreover, in series [8], the “inhibition (INH)” value was 37%. Also, the result in [9] was Active.
In the case of `CCCCCCCC[n+]1ccn(-c2ccc(C#Cc3ccc(-n4cc[n+](CCCCCCCC)c4)cc3)cc2)c1.[Br-].[Br-]`, the MIC in [1], in [2] and in series [3] was 1 µg/mL each time. Also, the HC5 in [4] turned out to be 200 µg/mL. Besides, the selectivity ratio in [5] amounted to 200.
Consider `CCn1cc(C(=O)O)c(=O)c2cc(F)c(N3CCNCC3)cc21` [NORFLOXACIN], for which the minimum inhibitory concentration (MIC) in series [1] and in [2] was 1 µg/mL (≈ 3.13 µM) in each case.
`CCCCCC[n+]1ccn(CCCCn2cc[n+](CCCCCC)c2)c1.[Br-].[Br-]`: the values for the MIC in series [1], in series [2] and in series [3] were 500 µg/mL, 125 µg/mL and 125 µg/mL, respectively. The HC5 in [4] worked out at 8000 µg/mL. In addition, the selectivity ratio in series [5] was determined as 16.
As to `CC[C@H](C)CCCCC(=O)N[C@@H](CCN)C(=O)N[C@H](C(=O)N[C@@H](CCN)C(=O)N[C@H]1CCNC(=O)[C@H]([C@@H](C)O)NC(=O)[C@H](CCN)NC(=O)[C@H](CCN)NC(=O)[C@H](CC(C)C)NC(=O)[C@@H](Cc2ccccc2)NC(=O)[C@H](CCN)NC1=O)[C@@H](C)O` (X1-[Dab]T[Dab][Dab][Dab][dF]L[Dab][Dab]T; lactam 4-C), the MIC in series [3], in [10], in [11] and in [12] was 1 µg/mL (≈ 0.831 µM) throughout.
Take `CCCC[n+]1ccn(-c2ccc(C#Cc3ccc(-n4cc[n+](CCCC)c4)cc3)cc2)c1.[Br-].[Br-]`: the MIC in series [1] was 4 µg/mL; in series [2], 2 µg/mL; in [3], 8 µg/mL. Moreover, the HC5 in series [4] was 2000 µg/mL. Also, in series [5], the selectivity ratio was 500.
